Values of other authors, collected in patent US20100183720A1, “Hetero-assembled hydrogels” (The Board of Trustees of the Leland Stanford Junior …, priority 2008, published 2010).

Biological target: T1, PABC Domain (Homo sapiens, UniProt P11940)
T1 construct: PABC Domain
Conditions: SPR; read-out: Dissociation constant, Kd (SPR Kd)

T1 sequence (P11940 542-619 limits assumed): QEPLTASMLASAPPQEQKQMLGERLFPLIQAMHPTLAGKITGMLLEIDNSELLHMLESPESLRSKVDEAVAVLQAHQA

Row | Substance | Kd [µM]
1 | AFSRQLNVNAKPFVPNVHAAEFVPSFLR | 1.3
2 | LVVKSNLNPNAKEF | 260
3 | LVVKSNLPNAKEFVP | 3
4 | SNLNPNAKEFVPGVKYG | 0.19

Results, then the substance that gave them:

Row | Kd [µM] | Substance
5 | 3.9 | AFSRQLNVNAKPFVPNVHA
6 | 3.1 | AKPFVPNVHAAEFVPSFLR
7 | 2.3 | VLMSKLSVNAPEFYPSGYSSSY
8 | 0.16 | VVKSNLNPNAKEFVPGVKYGNI

Biological target: T2, SH3 Domain (Homo sapiens, UniProt P27986)
T2 construct: SH3 Domain
T2 sequence (P27986 3-79 limits assumed): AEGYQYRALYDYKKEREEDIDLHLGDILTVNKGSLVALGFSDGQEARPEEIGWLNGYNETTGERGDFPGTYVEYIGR
Conditions: read-out: Dissociation constant, Kd

Row | Substance | Kd [µM]
9 | RALPPRPSK | 9.7 ± 0.2
10 | RKAPPRPSK | 37 ± 1
11 | RKLPPAPSK | 29 ± 2
12 | RKLPPRASK | 53 ± 6
13 | RKLPPRP | 12.8 ± 0.6
14 | RKLPPRPSK | 9.1 ± 0.6
15 | RPLPPRPSK | 9.1 ± 0.6

Further lines, results first:

Row | Kd [µM] | Substance
16 | 98 ± 0.2 | AKLPPRPSK
17 | 140 ± 10 | RKLAPRPSK
18 | 16.5 ± 0.1 | RKLPARPSK

Biological target: model group I polyproline peptide
Conditions: monomeric units of WW domain bound to model group I polyproline peptide; read-out: apparent dissociation constant

Row | Kd [µM] | Substance
19 | 11.2 ± 1.2 | Nedd4.3: wild-type WW domain sequence (Protein Data Bank 1I5H), monomeric unit (PLPPGWEERTHTDGRVFFINHNIKKTQWEDPRMQ; Natural WW domain also called Nedd4.3 Kanelis, V., Rotin D. & Forman-Kay, JD (2001) Solution structure of a Nedd4 WW domain-ENaC peptide complex, Nat Struct Biol 8 407-12.)

Biological target: T3, SH3 Domain cSRC (1 SH3 and 1 SH2) (Gallus gallus, UniProt P00523)
T3 construct: SH3 Domain
Conditions: read-out: Dissociation constant, Kd

Row | Substance | Kd [µM]
20 | PYHPPLPRR | 13
21 | RKLPPRPSK | 73

Second part, the substance after the results:

Row | Kd [µM] | Substance
22 | 9.6 | RELPPIPVF
23 | 7.8 | RELPPLPRF
24 | 12 | RPLPPTPKY

Biological target: T4, SH3 Domain PI3K (1 SH3 and 2 SH2) (Homo sapiens, UniProt P27986)
T4 construct: SH3 Domain
T4 sequence (P27986 3-79 limits assumed): as the sequence (P27986 3-79 limits assumed) above
Conditions: read-out: Dissociation constant, Kd

Row | Kd [µM] | Substance
25 | 13 | LNKPPLPKR
26 | 17 | RALPPLPRY
27 | 11 | RKLPPRPAF
28 | 13 | RYLPPRPMY

Row | Substance | Kd [µM]
29 | RKLPPRPSK | 9.1

Biological target: T5, Human YAP65 (Yes kinase-associated protein) WW Domain (Homo sapiens, UniProt P46937)
T5 construct: WW Domain
T5 sequence (P46937 171-204 limits assumed): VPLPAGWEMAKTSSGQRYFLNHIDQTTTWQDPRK
Conditions: read-out: Dissociation constant, Kd (Binding constant)

Row | Kd [µM] | Substance
30 | 52 ± 6 | GTPPPPYTVG
31 | 53 ± 17 | SAPPPYTV
32 | 63 ± 17 | SPPPAYTV
33 | 118 ± 17 | SPPPPFTV
34 | 47 ± 6 | SPPPYTV

Biological target: T6, Human Tsg101 UEV domain (Homo sapiens, UniProt Q99816)
T6 construct: Human Tsg101 UEV domain
T6 sequence (Q99816 2-145 limits assumed): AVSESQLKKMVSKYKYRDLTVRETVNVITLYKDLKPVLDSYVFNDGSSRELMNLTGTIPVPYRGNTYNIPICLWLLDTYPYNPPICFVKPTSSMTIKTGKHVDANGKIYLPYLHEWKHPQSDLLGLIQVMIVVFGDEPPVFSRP
Conditions: read-out: Dissociation constant, Kd (Binding constant)

Row | Substance | Kd [µM]
35 | HIV-1 p6 protein: binding partner of Human Tsg101 UEV domain (LQSRPEPTAPPEESFRSGVETTTPPQKQEPIDKELYPLTSLRSLFGNDPSSQ; p6-gag; UniProt P04591 449-500, looked up) | 27 ± 5
